Measurements published in patent US9796686B2, “Antibacterial quinazoline-4(3H)-one derivatives” (priority 2014, dated 2017).
≈ marks a conversion by molar mass, not a printed value. Each block holds one compound with its values, some of them ahead of it.

What was measured:
Experiment in all cases: Bacterial growth minimal inhibitory concentration, microdilution in cation-adjusted Mueller-Hinton Broth (CLSI M7-A7)
Assay type in all cases: cell-based
P. aeruginosa ATCC27853 = details: quinolone-sensitive strain; for MIC: Pseudomonas aeruginosa, ATCC27853, read-out: MIC for P. aeruginosa ATCC27853
Experimental: (§1) Minimal Inhibitory Concentrations (MICs; mg/L) were determined in cation-adjusted Mueller-Hinton Broth by a microdilution method following the description given in “Methods for Dilution Antimicrobial Susceptibility Tests for Bacteria that Grow Aerobically”, Approved standard, 7th ed., Clinical and Laboratory Standards Institute (CLSI) Document M7-A7, Wayne, Pa., U.S.A. (2006).
(§2) All Example compounds were tested against several Gram-positive and Gram-negative bacteria. […] K. pneumoniae A-651 is a multiply-resistant strain (in particular quinolone-resistant), while E. coli ATCC25922 and P. aeruginosa ATCC27853 are quinolone-sensitive strains.

E. coli ATCC25922 = details: quinolone-sensitive strain; for MIC: Escherichia coli, ATCC25922, read-out: MIC for E. coli ATCC25922
Experimental: as §1, §2

K. pneumoniae A-651 = details: multiply-resistant strain (in particular quinolone-resistant); for MIC: Klebsiella pneumoniae, A651, read-out: MIC for K. Pneumoniae A-651
Experimental: as §1, §2

Structure (SMILES): C[C@@](CCn1cnc2cc(C#CC#C[C@@H](O)CO)ccc2c1=O)(C(=O)NO)S(C)(=O)=O [Example 10, (R)-4-(7-((R)-5,6-dihydroxyhexa-1,3-diyn-1-yl)-4-oxoquinazolin-3(4H)-yl)-N-hydroxy-2-methyl-2-(methylsulfonyl)butanamide]
MIC (P. aeruginosa ATCC27853): 4 µg/mL (≈ 8.94 µM)
MIC (E. coli ATCC25922): 8 µg/mL (≈ 17.9 µM)
MIC (K. pneumoniae A-651): 8 µg/mL (≈ 17.9 µM)

Structure (SMILES): C[C@@](CCn1cnc2cc(C#CC#C[C@@H]3C[C@H]3CO)c(F)cc2c1=O)(C(=O)NO)S(C)(=O)=O [Example 11, (R)-4-(6-fluoro-7-(((1R,2R)-2-(hydroxymethyl)cyclopropyl)buta-1,3-diyn-1-yl)-4-oxoquinazolin-3(4H)-yl)-N-hydroxy-2-methyl-2-(methylsulfonyl)butanamide]
MIC (P. aeruginosa ATCC27853): 1 µg/mL (≈ 2.1 µM)
MIC (E. coli ATCC25922): ≤ 0.063 µg/mL
MIC (K. pneumoniae A-651): 0.25 µg/mL (≈ 0.526 µM)

Structure (SMILES): C[C@@](CCn1cnc2cc(C#CC#CC3(CO)CC3)c(F)cc2c1=O)(C(=O)NO)S(C)(=O)=O [Example 12, (R)-4-(6-fluoro-7-((1-(hydroxymethyl)cyclopropyl)buta-1,3-diyn-1-yl)-4-oxoquinazolin-3(4H)-yl)-N-hydroxy-2-methyl-2-(methylsulfonyl)butanamide]
MIC (P. aeruginosa ATCC27853): 2 µg/mL (≈ 4.21 µM)
MIC (E. coli ATCC25922): 0.25 µg/mL (≈ 0.526 µM)
MIC (K. pneumoniae A-651): 0.5 µg/mL (≈ 1.05 µM)

Structure (SMILES): C[C@@](CCn1cnc2cc(C#CC#CC34CC(CO)(C3)C4)ccc2c1=O)(C(=O)NO)S(C)(=O)=O [Example 13, (R)-N-hydroxy-4-(7-((3-(hydroxymethyl)bicyclo[1.1.1]pentan-1-yl)buta-1,3-diyn-1-yl)-4-oxoquinazolin-3(4H)-yl)-2-methyl-2-(methylsulfonyl)butanamide]
MIC (P. aeruginosa ATCC27853): 0.5 µg/mL (≈ 1.03 µM)
MIC (E. coli ATCC25922): 0.125 µg/mL (≈ 0.259 µM)
MIC (K. pneumoniae A-651): 0.25 µg/mL (≈ 0.517 µM)

Structure (SMILES): C[C@@](CCn1cnc2cc(C#Cc3ccc(OCCO)cc3)ccc2c1=O)(C(=O)NO)S(C)(=O)=O [Example 14, (R)-N-hydroxy-4-(7-((4-(2-hydroxyethoxy)phenyl)ethynyl)-4-oxoquinazolin-3(4H)-yl)-2-methyl-2-(methylsulfonyl)butanamide]
MIC (P. aeruginosa ATCC27853): 16 µg/mL (≈ 32 µM)
MIC (E. coli ATCC25922): 0.25 µg/mL (≈ 0.5 µM)
MIC (K. pneumoniae A-651): 0.5 µg/mL (≈ 1 µM)

Structure (SMILES): C[C@@](CCn1cnc2cc(C#CC#C[C@@H]3C[C@@H](O)[C@@H](O)C3)ccc2c1=O)(C(=O)NO)S(C)(=O)=O [Example 15, (R)-4-(7-(((1s,3R,4S)-3,4-dihydroxycyclopentyl)buta-1,3-diyn-1-yl)-4-oxoquinazolin-3(4H)-yl)-N-hydroxy-2-methyl-2-(methylsulfonyl)butanamide]
MIC for P. aeruginosa ATCC27853 (P. aeruginosa ATCC27853): 2 mg/L
MIC for E. coli ATCC25922 (E. coli ATCC25922): 1 mg/L
MIC for K. Pneumoniae A-651 (K. pneumoniae A-651): 1 mg/L

Structure (SMILES): C[C@@](CCn1cnc2cc(C#Cc3ccc(C4(CO)CC4)cc3)ccc2c1=O)(C(=O)NO)S(C)(=O)=O [Example 16, (R)-N-hydroxy-4-(7-((4-(1-(hydroxymethyl)cyclopropyl)phenyl)ethynyl)-4-oxoquinazolin-3(4H)-yl)-2-methyl-2-(methylsulfonyl)butanamide]
MIC (P. aeruginosa ATCC27853): 4 µg/mL (≈ 7.85 µM)
MIC (E. coli ATCC25922): 0.125 µg/mL (≈ 0.245 µM)
MIC (K. pneumoniae A-651): 0.25 µg/mL (≈ 0.491 µM)

Structure (SMILES): CN(C)CC(=O)OCC1(c2ccc(C#Cc3ccc4c(=O)n(CC[C@](C)(C(=O)NO)S(C)(=O)=O)cnc4c3)cc2)CC1.Cl [Example 22]
MIC for P. aeruginosa ATCC27853 (P. aeruginosa ATCC27853): 16 mg/L
MIC for E. coli ATCC25922 (E. coli ATCC25922): 0.5 mg/L
MIC for K. Pneumoniae A-651 (K. pneumoniae A-651): 4 mg/L

Now from value to compound:

MIC (P. aeruginosa ATCC27853): 0.5 µg/mL (≈ 1.06 µM)
MIC (E. coli ATCC25922): ≤ 0.063 µg/mL
MIC (K. pneumoniae A-651): 0.125 µg/mL (≈ 0.265 µM)
Structure (SMILES): C[C@@]1(CO)C[C@H]1C#CC#Cc1ccc2c(=O)n(CC[C@](C)(C(=O)NO)S(C)(=O)=O)cnc2c1 [Example 17, (R)-N-hydroxy-4-(7-(((1S,2R)-2-(hydroxymethyl)-2-methylcyclopropyl)buta-1,3-diyn-1-yl)-4-oxoquinazolin-3(4H)-yl)-2-methyl-2-(methylsulfonyl)butanamide]

MIC (P. aeruginosa ATCC27853): 4 µg/mL (≈ 8.01 µM)
MIC (E. coli ATCC25922): 0.5 µg/mL (≈ 1 µM)
MIC (K. pneumoniae A-651): 2 µg/mL (≈ 4 µM)
Structure (SMILES): C[C@@](CCn1cnc2cc(C#Cc3ccc([C@@H](O)CO)cc3)ccc2c1=O)(C(=O)NO)S(C)(=O)=O [Example 18, (R)-4-(7-((4((R)-1,2-dihydroxyethyl)phenyl)ethynyl)-4-oxoquinazolin-3(4H)-yl)-N-hydroxy-2-methyl-2-(methylsulfonyl)butanamide]

MIC (P. aeruginosa ATCC27853): 1 µg/mL (≈ 2.12 µM)
MIC (E. coli ATCC25922): 0.125 µg/mL (≈ 0.265 µM)
MIC (K. pneumoniae A-651): 0.5 µg/mL (≈ 1.06 µM)
Structure (SMILES): C[C@@]1(C#CC#Cc2ccc3c(=O)n(CC[C@](C)(C(=O)NO)S(C)(=O)=O)cnc3c2)C[C@H]1CO [Example 20, (R)-N-hydroxy-4-(7-(((1R,2R)-2-(hydroxymethyl)-1-methylcyclopropyl)buta-1,3-diyn-1-yl)-4-oxoquinazolin-3(4H)-yl)-2-methyl-2-(methylsulfonyl)butanamide]

MIC (P. aeruginosa ATCC27853): 4 µg/mL (≈ 8.41 µM)
MIC (E. coli ATCC25922): 0.25 µg/mL (≈ 0.526 µM)
MIC (K. pneumoniae A-651): 0.5 µg/mL (≈ 1.05 µM)
Structure (SMILES): C[C@@](CCn1cnc2c(F)c(C#CC#C[C@@H]3C[C@H]3CO)ccc2c1=O)(C(=O)NO)S(C)(=O)=O [Example 21, (R)-4-(8-fluoro-7-(((1R,2R)-2-(hydroxymethyl)cyclopropyl)buta-1,3-diyn-1-yl)-4-oxoquinazolin-3(4H)-yl)-N-hydroxy-2-methyl-2-(methylsulfonyl)butanamide]

MIC (P. aeruginosa ATCC27853): 4 µg/mL (≈ 8.41 µM)
MIC (E. coli ATCC25922): 0.5 µg/mL (≈ 1.05 µM)
MIC (K. pneumoniae A-651): 0.5 µg/mL (≈ 1.05 µM)
Structure (SMILES): C[C@@](CCn1cnc2c(F)c(C#CC#C[C@H]3C[C@@H]3CO)ccc2c1=O)(C(=O)NO)S(C)(=O)=O [Example 23, (R)-4-(8-fluoro-7-(((1S,2S)-2-(hydroxymethyl)cyclopropyl)buta-1,3-diyn-1-yl)-4-oxoquinazolin-3(4H)-yl)-N-hydroxy-2-methyl-2-(methylsulfonyl)butanamide]

MIC (P. aeruginosa ATCC27853): 1 µg/mL (≈ 2.12 µM)
MIC (E. coli ATCC25922): 0.25 µg/mL (≈ 0.53 µM)
MIC (K. pneumoniae A-651): 0.25 µg/mL (≈ 0.53 µM)
Structure (SMILES): C[C@]1(CO)C[C@@H]1C#CC#Cc1ccc2c(=O)n(CC[C@](C)(C(=O)NO)S(C)(=O)=O)cnc2c1 [Example 24, (R)-N-hydroxy-4-(7-(((1R,2S)-2-(hydroxymethyl)-2-methylcyclopropyl)buta-1,3-diyn-1-yl)-4-oxoquinazolin-3(4H)-yl)-2-methyl-2-(methylsulfonyl)butanamide]

MIC (P. aeruginosa ATCC27853): 1 µg/mL
MIC (E. coli ATCC25922): 0.25 µg/mL
MIC (K. pneumoniae A-651): 0.5 µg/mL
Structure (SMILES): C[C@@](CCn1cnc2cc(C#CC#CC3(N)CC3)ccc2c1=O)(C(=O)NO)S(C)(=O)=O.O=CO [Example 25, (R)-4-(7-((1-aminocyclopropyl)buta-1,3-diyn-1-yl)-4-oxoquinazolin-3(4H)-yl)-N-hydroxy-2-methyl-2-(methylsulfonyl)butanamide formate]

MIC (P. aeruginosa ATCC27853): 1 µg/mL (≈ 2.05 µM)
MIC (E. coli ATCC25922): 1 µg/mL (≈ 2.05 µM)
MIC (K. pneumoniae A-651): 1 µg/mL (≈ 2.05 µM)
Structure (SMILES): C[C@@](CCn1cnc2cc(C#CC#C[C@@H]3C[C@H]3[C@H](O)CO)ccc2c1=O)(C(=O)NO)S(C)(=O)=O [Example 26, (R)-4-(7-(((1R,2R)-2-((S)-1,2-dihydroxyethyl)cyclopropyl)buta-1,3-diyn-1-yl)-4-oxoquinazolin-3(4H)-yl)-N-hydroxy-2-methyl-2-(methylsulfonyl)butanamide]

MIC (P. aeruginosa ATCC27853): 8 µg/mL
MIC (E. coli ATCC25922): 1 µg/mL
MIC (K. pneumoniae A-651): 4 µg/mL
Structure (SMILES): C[C@@](CCn1cnc2cc(C#CC#CC3CCC(NC(=O)CN)C3)c(F)cc2c1=O)(C(=O)NO)S(C)(=O)=O.Cl (stereo partly drawn) [Example 27, (R)-4-(7-((3-(2-aminoacetamido)cyclopentyl)buta-1,3-diyn-1-yl)-6-fluoro-4-oxoquinazolin-3(4H)-yl)-N-hydroxy-2-methyl-2-(methylsulfonyl)butanamide hydrochloride]

MIC (P. aeruginosa ATCC27853): 8 µg/mL
MIC (E. coli ATCC25922): 8 µg/mL
MIC (K. pneumoniae A-651): 8 µg/mL
Structure (SMILES): C[C@@](CCn1cnc2cc(C#CC#C[C@@H]3C[C@H]3CN)c(F)cc2c1=O)(C(=O)NO)S(C)(=O)=O.Cl [Example 28, (R)-4-(7-(((1R,2R)-2-(aminomethyl)cyclopropyl)buta-1,3-diyn-1-yl)-6-fluoro-4-oxoquinazolin-3(4H)-yl)-N-hydroxy-2-methyl-2-(methylsulfonyl)butanamide hydrochloride]
